Test results published in ChEMBL document CHEMBL1125954, “Studies on quinazolinones. 3: 1 novel and efficient route to the synthesis of conformationally restricted analogues of ketanserin and SGB-1534 as antihypertensive agents” (Bioorg Med Chem Lett, 1991).

Target: Adrenergic receptor alpha-1 (Rattus norvegicus) (UniProt P15823+P23944+P43140)
Assay: Compound was tested for antihypertensive activity mediated through Alpha-1 adrenergic receptor in anesthetized rat
Format: functional

## O=C1Nc2ccccc2C2=NC(CN3CCN(c4ccccc4)CC3)CN12 (stereo unspecified)
  ED50: 0.25 mg/kg
